Assay results taken from patent US20230107941A1, “HEPATITIS B CAPSID ASSEMBLY MODULATORS” (Venatorx Pharmaceuticals, Inc., priority 2019, published 2023).

What was measured:
HBV = test: In vitro antiviral assay: anti-HBV replication in HepAD38 cells (extracellular HBV DNA by QPCR); assay type: cell-based, hepatitis B virus (genotype D, serotype ayw); conditions: Hepatitis B virus, HePAD38, 168 h, 7 days incubation, extracellular HBV DNA by QPCR, read-out: Anti-HBV EC50
Procedure, shortened: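 Read-out is extracellular HBV DNA (copies/mL, QPCR standard curve) after 7-day exposure of tet-free HepAD38 cells to 10-fold dilutions from 1 μM down to 10 pM. Values normalised to DMSO vehicle; EC50 from 4-parameter nonlinear regression, with entecavir validating each run.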

[1] = In vitro cytotoxicity assay (MTT cell viability) in HepG2 cells; assay type: cell-based, human; conditions: human
Procedure, shortened: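 CC50 was derived by 4-parameter fit of viability relative to vehicle controls, measured as MTT formazan absorbance at 492 nm after 3–4 h of reagent and DMSO solubilization. Before that, HepG2 cells seeded overnight at 20,000/well were incubated 7 days at 37°C with compound from 30 μM down to 1.0 nM in half-log steps.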

| SMILES | EC50 (HBV) [nM] | CC50 at 7 days [1] [nM] |
| --- | --- | --- |
| Cc1cc(NC(=O)c2c(C)c(C(=O)C(=O)N[C@]3(C)CC[C@H](O)CC3)n(C)c2-c2cccnc2)ccc1F [Example 152, N-(4-fluoro-3-methylphenyl)-5-(2-(((1s,4s)-4-hydroxy-1-methylcyclohexyl)amino)-2-oxoacetyl)-1,4-dimethyl-2-(pyridin-3-yl)-1H-pyrrole-3-carboxamide] | > 1000 | > 30000 |
| Cc1cc(NC(=O)c2c(C)c(C(=O)C(=O)NCC(C)(C)O)n(C)c2C2CCCC2)ccc1F [Example 135, 2-cyclopentyl-N-(4-fluoro-3-methylphenyl)-5-(2-((2-hydroxy-2-methylpropyl)amino)-2-oxoacetyl)-1,4-dimethyl-1H-pyrrole-3-carboxamide] | 50 to 499 | > 30000 |
| Cc1cc(NC(=O)c2c(C)c(C(=O)C(=O)NC3C[C@@H]4CC(O)[C@H]3C4)n(C)c2C)ccc1F (stereo partly drawn) [Example 24, N-(4-fluoro-3-methylphenyl)-5-(2-(((1S,4R)-6-hydroxybicyclo[2.2.1]heptan-2-yl)amino)-2-oxoacetyl)-1,2,4-trimethyl-1H-pyrrole-3-carboxamide] | < 50 | > 30000 |
| Cc1cc(NC(=O)c2c(C)c(C(=O)C(=O)N[C@H]3CC[C@@H](OCC(=O)NCCOCCOCCOCCOCCOCCOCCOCCNC(=O)CCCCC4SCC5NC(=O)NC54)CC3)n(C)c2C)ccc1F (some centres unmarked) [Example 121, 5-(2-(((1s,4s)-4-((2,28-dioxo-32-(2-oxohexahydro-1H-thieno[3,4-d]imidazol-4-yl)-6,9,12,15,18,21,24-heptaoxa-3,27-diazadotriacontyl)oxy)cyclohexyl)amino)-2-oxoacetyl)-N-(4-fluoro-3-methylphenyl)-1,2,4-trimethyl-1H-pyrrole-3-carboxamide] | > 1000 | > 30000 |
| Cc1c(C(=O)NC2COCCOC2)c(C)n(C)c1C(=O)C(=O)NC(C)(C)C [Example 48, 5-(2-(tert-butylamino)-2-oxoacetyl)-N-(1,4-dioxepan-6-yl)-1,2,4-trimethyl-1H-pyrrole-3-carboxamide] | > 1000 | > 30000 |
| Cc1cc(NC(=O)c2c(C)c(C(=O)C(=O)NC3(C)CCN(C(=O)N4CCOCC4)CC3)n(C)c2C)ccc1F [Example 36, N-(4-fluoro-3-methylphenyl)-1,2,4-trimethyl-5-(2-((4-methyl-1-(morpholine-4-carbonyl)piperidin-4-yl)amino)-2-oxoacetyl)-1H-pyrrole-3-carboxamide] | < 50 | > 30000 |
| Cc1cc(NC(=O)c2c(C)c(C(=O)C(=O)N[C@H]3CC[C@@H](S(C)(=O)=O)CC3)n(C)c2-c2cccnc2)ccc1F [Example 151, N-(4-fluoro-3-methylphenyl)-1,4-dimethyl-5-(2-(((1s,4s)-4-(methylsulfonyl)cyclohexyl)amino)-2-oxoacetyl)-2-(pyridin-3-yl)-1H-pyrrole-3-carboxamide] | > 1000 | > 30000 |
| Cc1c(C(=O)Nc2ccc(F)cc2)c(C)n(C)c1C(=O)C(=O)N[C@]1(C)CC[C@@H](O)CC1 [Example 137, N-(4-fluorophenyl)-5-(2-(((1r,4r)-4-hydroxy-1-methylcyclohexyl)amino)-2-oxoacetyl)-1,2,4-trimethyl-1H-pyrrole-3-carboxamide] | < 50 | > 30000 |
| Cc1cc(NC(=O)c2c(C)c(C(=O)C(=O)N[C@H]3CC[C@@H](S(C)(=O)=O)CC3)n(C)c2C2CCCC2)ccc1F [Example 131, 2-cyclopentyl-N-(4-fluoro-3-methylphenyl)-1,4-dimethyl-5-(2-(((1s,4s)-4-(methylsulfonyl)cyclohexyl)amino)-2-oxoacetyl)-1H-pyrrole-3-carboxamide] | > 1000 | 5000 to 30000 |
| Cc1c(C(=O)Nc2ccc(F)c(S(C)(=O)=O)c2)c(C)n(C)c1C(=O)C(=O)NC(C)(C)C [Example 69, 5-(2-(tert-butylamino)-2-oxoacetyl)-N-(4-fluoro-3-(methylsulfonyl)phenyl)-1,2,4-trimethyl-1H-pyrrole-3-carboxamide] | > 1000 | > 30000 |
| COC(=O)c1cc(NC(=O)c2c(C)c(C(=O)C(=O)NC(C)(C)C)n(C)c2C)ccc1F [Example 55, methyl 5-(5-(2-(tert-butylamino)-2-oxoacetyl)-1,2,4-trimethyl-1H-pyrrole-3-carboxamido)-2-fluorobenzoate] | > 1000 | > 30000 |
| Cc1c(C(=O)Nc2cccc(Cl)n2)c(C)n(C)c1C(=O)C(=O)N[C@H](C)C(F)(F)F [Example 77, (R)-N-(6-chloropyridin-2-yl)-1,2,4-trimethyl-5-(2-oxo-2-((1,1,1-trifluoropropan-2-yl)amino)acetyl)-1H-pyrrole-3-carboxamide] | 50 to 499 | > 30000 |
| CC(=O)N1CC[C@@H](NC(=O)C(=O)c2c(C)c(C(=O)Nc3ccc(F)c(C)c3)c(C)n2C)C[C@H]1C [Example 165, 5-(2-(((2R,4R)-1-acetyl-2-methylpiperidin-4-yl)amino)-2-oxoacetyl)-N-(4-fluoro-3-methylphenyl)-1,2,4-trimethyl-1H-pyrrole-3-carboxamide] | < 50 | > 30000 |
| CCc1c(C(=O)Nc2ccc(F)c(C)c2)c(C)c(C(=O)C(=O)N[C@H]2CC[C@@H](S(C)(=O)=O)CC2)n1C [Example 106, 2-ethyl-N-(4-fluoro-3-methylphenyl)-1,4-dimethyl-5-(2-(((1s,4s)-4-(methylsulfonyl)cyclohexyl)amino)-2-oxoacetyl)-1H-pyrrole-3-carboxamide] | < 50 | > 30000 |
| Cc1c(C(=O)Nc2ccc(F)c(C3CC3)c2)c(C)n(C)c1C(=O)C(=O)N[C@]1(C)CC[C@@H](O)CC1 [Example 136, N-(3-cyclopropyl-4-fluorophenyl)-5-(2-(((1r,4r)-4-hydroxy-1-methylcyclohexyl)amino)-2-oxoacetyl)-1,2,4-trimethyl-1H-pyrrole-3-carboxamide] | < 50 | > 30000 |
| Cc1c(C(=O)Nc2ccc(F)c(C#N)c2)c(C)n(C)c1C(=O)C(=O)NC1(C)CC(O)C1 (centres unmarked) [Example 83, N-(3-cyano-4-fluorophenyl)-5-(2-((3-hydroxy-1-methylcyclobutyl)amino)-2-oxoacetyl)-1,2,4-trimethyl-1H-pyrrole-3-carboxamide] | < 50 | > 30000 |
| CC(=O)N1CC[C@@H](NC(=O)C(=O)c2c(C)c(C(=O)Nc3ccc(F)c(C)c3)c(C)n2C)[C@H](F)C1 [Example 147, 5-(2-(((3R,4R)-1-acetyl-3-fluoropiperidin-4-yl)amino)-2-oxoacetyl)-N-(4-fluoro-3-methylphenyl)-1,2,4-trimethyl-1H-pyrrole-3-carboxamide] | < 50 | > 30000 |
| Cc1cc(NC(=O)c2c(C)c(C(=O)C(=O)N[C@H]3CCN(CC(=O)O)C3)n(C)c2C)ccc1F [Example 28, (S)-2-(3-(2-(4-((4-fluoro-3-methylphenyl)carbamoyl)-1,3,5-trimethyl-1H-pyrrol-2-yl)-2-oxoacetamido)pyrrolidin-1-yl)acetic acid] | > 1000 | > 30000 |
| Cc1c(C(=O)Nc2ccc(F)c(C#N)c2)c(C)n(C)c1C(=O)C(=O)Nc1ccc(B(O)O)cc1 [Example 140, (4-(2-(4-((3-cyano-4-fluorophenyl)carbamoyl)-1,3,5-trimethyl-1H-pyrrol-2-yl)-2-oxoacetamido)phenyl)boronic acid] | < 50 | > 30000 |
| CCC1(NC(=O)C(=O)c2c(C)c(C(=O)Nc3ccc(F)c(C)c3)c(C)n2C)CCN(C(=O)c2ccnn2C)CC1 [Example 39, 5-(2-((4-ethyl-1-(1-methyl-1H-pyrazole-5-carbonyl)piperidin-4-yl)amino)-2-oxoacetyl)-N-(4-fluoro-3-methylphenyl)-1,2,4-trimethyl-1H-pyrrole-3-carboxamide] | < 50 | > 30000 |
| Cc1cc(NC(=O)c2c(C)c(C(=O)C(=O)N[C@@H]3CCN[C@H](C(=O)O)C3)n(C)c2C)ccc1F [Example 180, (2S,4R)-4-(2-(4-((4-fluoro-3-methylphenyl)carbamoyl)-1,3,5-trimethyl-1H-pyrrol-2-yl)-2-oxoacetamido)piperidine-2-carboxylic acid] | > 1000 | > 30000 |
| Cc1cc(NC(=O)c2c(C)c(C(=O)C(=O)N[C@]3(C)C[C@H](O)C3)n(C)c2-c2ccccn2)ccc1F [Example 155, N-(4-fluoro-3-methylphenyl)-5-(2-(((1s,3s)-3-hydroxy-1-methylcyclobutyl)amino)-2-oxoacetyl)-1,4-dimethyl-2-(pyridin-2-yl)-1H-pyrrole-3-carboxamide] | > 1000 | > 30000 |
| Cc1cc(NC(=O)c2c(C)c(C(=O)C(=O)NC3(C)CNC(=O)C34CC4)n(C)c2C)ccc1F (centres unmarked) [Example 81, N-(4-fluoro-3-methylphenyl)-1,2,4-trimethyl-5-(2-((7-methyl-4-oxo-5-azaspiro[2.4]heptan-7-yl)amino)-2-oxoacetyl)-1H-pyrrole-3-carboxamide] | < 50 | > 30000 |
| Cc1cc(NC(=O)c2c(C(C)C)c(C(=O)C(=O)NCC(C)(C)O)n(C)c2C)ccc1F [Example 94, N-(4-fluoro-3-methylphenyl)-5-(2-((2-hydroxy-2-methylpropyl)amino)-2-oxoacetyl)-4-isopropyl-1,2-dimethyl-1H-pyrrole-3-carboxamide] | 500 to 1000 | > 30000 |
| Cc1c(C(=O)Nc2ccc(F)c(Br)c2)c(C)n(C)c1C(=O)C(=O)N[C@H]1CC[C@@H](O)CC1 [Example 19, N-(3-bromo-4-fluorophenyl)-5-(2-(((1s,4s)-4-hydroxycyclohexyl)amino)-2-oxoacetyl)-1,2,4-trimethyl-1H-pyrrole-3-carboxamide] | < 50 | > 30000 |
